Earlier results on 2 molecules are cited in patent US20080015265A1, “Methods of treating obesity using satiety factors” (priority 2006, published 2008).

Where no end group is shown, it is not given here.

For data set [1] the following is noted: rats and/or mice.
The conditions of data set [2]: human subjects; peripheral or intravenous administration.

As to “pancreatic peptide (APLEPVYPGDNATPEQMAQYAADLRRYINMLTRPRY; ends and bridges not checked; UniProt P01298 30-65, looked up) [PP, 36-amino acid peptide of the NPY family produced in the pancreatic islets]”, in data set [1], the “food intake (feeding)” value is “reduces food intake”; the weight gain result is “reduces food intake and weight gain”. Moreover, in data set [2], the food intake result was “sustained decrease in appetite and food intake”; the hunger / appetite result is “sustained decrease in appetite”.

B1: adiponectin (protein, UniProt Q15848 19-244, looked up)
Adiponectin: ETTTQGPGVLLPLPKGACTGWMAGIPGHPGHNGAPGRDGRDGTPGEKGEKGDPGLIGPKGDIGETGVPGAEGPRGFPGIQGRKGEPGEGAYVYRSAFSVGLETYVTIPNMPIRFTKIFYNQQNHYDGSTGKFHCNIPGLYYFAYHITVYMKDVKVSLFKKDKAMLFTYDQYQENNVDQASGSVLLHLEVGDQVWLQVYGEGERNGLYADNDNDSTFTGFLLYHDTN
notes: non-gut peptide satiety factor
As to B1, in the data set with hepatocyte, the “sensitivity of the hepatocyte to insulin” value is on record as “increase the sensitivity of the hepatocyte to insulin”.
